Key:
SMN-POLR2A interaction = biological target: T1, SMN-POLR2A interaction (Homo sapiens, UniProt Q16637); experiment: Coimmunoprecipitation of POLR2A with SMN in HEK293 cells; assay type: cell-based; conditions: 72 h; for inhibition of the interaction between SMN and POLR2A: 20 µM; for coimmunoprecipitation of POLR2A with SMN: series of concentrations
T1 construct: endogenous in cells; host or cells: HEK293
Experimental: (§1) HEK293 cells (ATCC, CRL-1573) were grown in DMEM (SLRI media facility) plus 10% FBS (Sigma, F1051). For analysis of SMN chemical antagonists, HEK293 cells were treated with DMSO or a series of concentrations (0, 2, 6, 10, 20, 30, 40, and 80 μM) of compound 1, compound 2 or negative compound 15 for 72 h. CRISPR-mediated SMN1 gene knockout was performed according to our previous study. Briefly, 2 μg of CRISPR/Cas9 plasmid (pCMV-Cas9-GFP), which expresses scrambled guide RNA, or guide RNA that targets the SMN1 gene exon1 (gRNA target sequence: […]) or exon3 (gRNA target sequence: […]) was transfected into HEK293 cells. Cells were sorted by BD FACSAria flow cytometry at Donnelly Center, University of Toronto 24 h after transfection, and single GFP-positive cells were seeded into a 48-well plate. The expression levels of SMN in each clone were detected by immunofluorescence. The transfection of GFP-RNase H1 R-loop-binding domain (GFP-HB) for R-loop detection into HEK293 cells was performed with the FuGENE Transfection reagent (Roche, E269A).
The experiments were performed following procedure as previously described with minor modifications. […] The supernatant cell lysates were sonicated with five on and off cycles of 0.3 s/0.7 s per mL and incubated for 30 min at 4 °C with 12.5–25 units/mL benzonase nuclease (Sigma, E1014) to remove RNA and DNA, followed by centrifugation at 18,400 × g for 30 min at 4 °C. The supernatant cell lysates were incubated with 2 μg of antibody overnight at 4 °C, followed by the addition of 20 μL of Dynabeads Protein G beads (Invitrogen, 10004D) for an additional incubation for 4 h. After washing with low-salt buffer (10 mM Tris-HCl, pH 7.9, 100 mM NaCl, and 0.1% Nonidet P-40) 3 times, 10 min/time, associated proteins were eluted into protein-loading buffer and separated by Tris 4–20% SDS-polyacrylamide (Mini-PROTEAN TGX Precast Protein Gel, BioRad, 4561096), and transferred to nitrocellulose or PVDF membranes (Immu-Blot PVDF, BioRad, 1620112 or 1620177). Transferred samples were immunoblotted with primary antibodies (POLR2A, Abcam, ab5408, monoclonal antibody, clone No. 4H8; SMN, Santa Cruz Biotechnology, sc-15320, polyclonal antibody; ACTB, Sigma, A5441, monoclonal antibody, clone No. AC-15; GFP, Invitrogen, G10362, rabbit monoclonal antibody; TUBB, Santa Cruz Biotechnology, sc-9104, polyclonal antibody) at a dilution of 1:2000 to 1:5000, followed by horseradish peroxidase-conjugated goat anti-mouse or mouse anti-rabbit secondary antibody (Jackson Immuno Research, 115-035-174 or 211-032-171) at a dilution of 1:10,000. Western blot detection was performed with enhanced chemiluminescence (Pierce ECL Western Blotting Substrate, Thermo Fisher, 32209). […]

[1] = tested on: SMN occupancy at ACTB gene; experiment: SMN ChIP-qPCR along the ACTB gene; assay type: cell-based, human; conditions: 72 h; for SMN/RNAPII, ACTB position 332 / SMN/RNAPII, ACTB position 1671 / SMN/RNAPII, ACTB position 2911 / SMN/RNAPII, ACTB position 3752 / SMN/RNAPII, ACTB position 4657 / SMN/RNAPII, ACTB position 5590 / SMN/RNAPII, ACTB position -72: HEK293, 20 μM, ChIP-qPCR, DMSO = 1; for occupancy levels of SMN along the ACTB gene: HEK293 cells, 20 µM
Experimental: (§2) ChIP was performed using the EZ-ChIP™ A - Chromatin Immunoprecipitation Kit (Millipore, 17-371) according to the manufacturer’s instruction. Antibodies were used with a range of 1–2 μg, and IgG (Millipore, polyclonal antibody, 12-370) was used as a background control. After immunoprecipitation, genomic DNA was de-crosslinked in ChIP elution buffer containing 5 M NaCl at 65 °C overnight and purified with the Qiaex II kit (Qiagen, 20021), and eluted in water for PCR amplification. Immunoprecipitated and input DNAs were used as templates for qPCR. The qPCR primer sequences for ACTB gene are the same as described earlier[9] and shown in the Supplementary Table 2. For analysis of SMN chemical antagonists, HEK293 cells were treated with DMSO, compound 1 or compound 2 (a final concentration of 20 μM) for 72 h, before processing for ChIP.

[2] = tested on: R-loops at ACTB gene locus; experiment: R-loop DNA immunoprecipitation with GFP-HB along ACTB locus; assay type: cell-based, human; conditions: for GFP-HB DNA immunoprecipitation qPCR, ACTB position 332 / GFP-HB DNA immunoprecipitation qPCR, ACTB position 1671 / GFP-HB DNA immunoprecipitation qPCR, ACTB position 3560 / GFP-HB DNA immunoprecipitation qPCR, ACTB position 3752 / GFP-HB DNA immunoprecipitation qPCR, ACTB position 4657 / GFP-HB DNA immunoprecipitation qPCR, ACTB position 5590 / GFP-HB DNA immunoprecipitation qPCR, ACTB position -72: HEK293 cells transfected with GFP-HB; for R-loop signals at the 3′-end of the ACTB gene: HEK293 cells, GFP-HB DNA immunoprecipitation
Text: Fig. 4 Effects of SMN antagonists on the interaction between SMN and RNAP II, RNAP II pause, and R-loop accumulation. a SMN antagonists disrupt binding of SMN to RNAP II. Data shown are representative of three independent experiments. b Illustration of ACTB gene and the qPCR amplification positions. c SMN antagonists reduce SMN association at ACTB gene locus. Quantification of SMN qPCR data from ChIP experiments using SMN antibody at the indicated ACTB amplification positions. The SMN levels in DMSO controls were set as 100%. d SMN antagonists lead to RNAP II pause. Quantification of RNAP II qPCR data from ChIP experiments using POLR2A antibody at the indicated ACTB amplification positions. e SMN knockout (KO) leads to R-loop accumulation. Representative single-plane images of Z-stacks of the R-loop levels in scramble vs SMN KO cells of three independent experiments. Scale bar: 5 μm. f Global nuclear R-loop accumulation in SMN KO cells. g SMN antagonists cause global nuclear R-loop accumulation. h SMN antagonists lead to R-loop accumulation at ACTB gene locus. Quantified DNA immunoprecipitation using primers along ACTB locus by using GFP antibody, in cell extracts that were transfected with GFP-RNase H1 R-loop-binding domain (GFP-HB) fusion construct for R-loop detection. a–h HEK293 cells; c, d, h data were presented as the mean ± S.E.M. of three independent experiments (*P < 0.05, **P < 0.01, ***P < 0.001 for the two-tailed Student’s t-test); f, g scatter plots representing data from single-cell and R-loop immunofluorescence analysis (number of cells = 377, 332, 295, 262, 265 for scramble, SMN KO, DMSO, Cmpd 1, Cmpd 2 condition, respectively; Mean ± Quartiles; ****P < 0.0001 for the two-tailed Mann–Whitney test; a.u.: arbitrary units). Source data are provided as a Source Data file.
as §1, §2

T1 sequence (Q16637 2-294 limits assumed): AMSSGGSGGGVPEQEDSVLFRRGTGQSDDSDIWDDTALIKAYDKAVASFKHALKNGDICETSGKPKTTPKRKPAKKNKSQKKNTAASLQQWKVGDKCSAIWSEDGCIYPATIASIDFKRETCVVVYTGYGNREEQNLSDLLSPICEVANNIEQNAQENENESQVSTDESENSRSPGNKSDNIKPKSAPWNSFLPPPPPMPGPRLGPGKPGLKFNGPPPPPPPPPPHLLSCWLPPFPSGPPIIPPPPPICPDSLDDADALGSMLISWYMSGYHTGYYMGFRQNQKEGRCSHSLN

Compound	inhibition of the interaction between SMN and POLR2A (SMN-POLR2A interaction)	coimmunoprecipitation of POLR2A with SMN (SMN-POLR2A interaction)	SMN/RNAPII, ACTB position 332 [1]	SMN/RNAPII, ACTB position 1671 [1]	SMN/RNAPII, ACTB position 2911 [1]	SMN/RNAPII, ACTB position 3752 [1]	SMN/RNAPII, ACTB position 4657 [1]	SMN/RNAPII, ACTB position 5590 [1]	SMN/RNAPII, ACTB position -72 [1]	occupancy levels of SMN along the ACTB gene [1]	GFP-HB DNA immunoprecipitation qPCR, ACTB position 332 [2]	GFP-HB DNA immunoprecipitation qPCR, ACTB position 1671 [2]	GFP-HB DNA immunoprecipitation qPCR, ACTB position 3560 [2]	GFP-HB DNA immunoprecipitation qPCR, ACTB position 3752 [2]	GFP-HB DNA immunoprecipitation qPCR, ACTB position 4657 [2]	GFP-HB DNA immunoprecipitation qPCR, ACTB position 5590 [2]	GFP-HB DNA immunoprecipitation qPCR, ACTB position -72 [2]	R-loop signals at the 3′-end of the ACTB gene [2]
Cn1c2c(c(=N)c3c1CCC3)CCC2 [Compound 1, 4-methyl-2,3,4,5,6,7-hexahydrodicyclopenta[b,e]pyridin-8(1H)-imine]	significant inhibition	disrupted	0.6623	0.139	0.1085	0.1464	0.1588	0.03323	0.2631	significantly reduced	0.009604	0.01285	0.03192	0.04162	0.02409	0.01303	0.00357	significantly increased
CCCn1c2c(c(=N)c3c1CCC3)CCC2 [Compound 2, 4-propyl-2,3,4,5,6,7-hexahydrodicyclopenta[b,e]pyridin-8(1H)-imine]	significant inhibition	disrupted	0.5015	0.45	0.3355	0.2279	0.35	0.2022	0.3107	significantly reduced	0.008454	0.01239	0.02386	0.02558	0.01308	0.01171	0.004979	significantly increased

Source: publication PMC9481570, “A small molecule antagonist of SMN disrupts the interaction between SMN and RNAP II” (Nature Communications, 2022)
